Consider 23 compounds from ChEMBL document CHEMBL4680263, “Identification of benzothiazinones containing 2-benzyl-2,7-diazaspiro[3.5]nonane moieties as new antitubercular agents” (Eur J Med Chem, 2020).

The test system of data set [1] is Mycobacterium tuberculosis. In words: Antimycobacterial activity against Mycobacterium tuberculosis H37Rv ATCC 27294 assessed as inhibition of bacterial growth incubated for 7 days by MABA assay. As to conditions: H37Rv ATCC 27294, 168 h, time 7 day. Type of data set: functional. Background: Resazurin is reduced to fluorescent resorufin, in cell work by metabolically active cells.

The nature of data set [2]: Cmax in BALB/c mouse at 12.5 mg/kg, po measured upto 24 hrs by HPLC analysis. Format: ADME, organism-based. On the set-up: route oral, dose 12.5 mg/kg, time <=24. As to conditions: in vivo.
A short description of data set [3]: Tmax in BALB/c mouse at 12.5 mg/kg, po measured upto 24 hrs by HPLC analysis. As to conditions: in vivo. Type of data set: ADME, organism-based.
Data set [4] in a line: Half life in BALB/c mouse at 12.5 mg/kg, po measured upto 24 hrs by HPLC analysis. As to conditions: in vivo. Format: ADME, organism-based.
A short description of data set [5]: Oral bioavailability in BALB/c mouse at 12.5 mg/kg measured upto 24 hrs by HPLC analysis. As to conditions: in vivo; for bioavailability: BALB/c. Format: ADME, organism-based.
Data set [6] can be described thus: Cmax in BALB/c mouse at 2.5 mg/kg, iv measured upto 24 hrs by HPLC analysis. Type of data set: ADME, organism-based. Also on record: route intravenous, dose 2.5 mg/kg, time <=24. As to conditions: in vivo.
Data set [7] can be described thus: AUC (0 to infinity) in BALB/c mouse at 12.5 mg/kg, po measured upto 24 hrs by HPLC analysis. Format: ADME, organism-based. Also on record: route oral, dose 12.5 mg/kg, time <=24. As to conditions: in vivo.
A short description of data set [8]: AUC (0 to infinity) in BALB/c mouse at 2.5 mg/kg, iv measured upto 24 hrs by HPLC analysis. Also on record: route intravenous, dose 2.5 mg/kg, time <=24. As to conditions: in vivo. Format: ADME, organism-based.
The subject of data set [9] is Mycobacterium tuberculosis. In words: Antimycobacterial activity against Mycobacterium tuberculosis H37Rv infected in BALB/c mouse assessed as reduction in colony forming unit in lung at 25 mg/kg, po administered once daily for 5 days a week for 3 weeks (reference value: 5.35 +/- 0.17 log10CFU). Format: functional.
Data set [10] can be described thus: Cytotoxicity against African green monkey Vero cells. Format: cell-based. As to conditions: chlorocebus sabaeus.
Data set [11] is described as follows: Half life in BALB/c mouse at 2.5 mg/kg, iv measured upto 24 hrs by HPLC analysis. As to conditions: in vivo. Format: ADME, organism-based.
Data set [12] can be described thus: Acute toxicity in BALB/c mouse assessed as mouse survival at 2 g/kg, po observed continuously for 4 hrs and each hr for next 24 hrs and at 8 hrs interval for following 7 days. Type of data set: organism-based. As to conditions: in vivo, 2000 mg/kg, 168 h, time 7 day.

Values after ≈ are worked out from the molar mass of the structure shown.

For `CO[C@H]1/C=C/O[C@@]2(C)Oc3c(C)c(O)c4c(O)c(c(/C=N/N5CCN(C)CC5)c(O)c4c3C2=O)NC(=O)/C(C)=C\C=C\[C@H](C)[C@H](O)[C@@H](C)[C@@H](O)[C@@H](C)[C@H](OC(C)=O)[C@@H]1C` [RIFAMPIN], in data set [1], the MIC (in general, the least concentration at which growth counts as inhibited) was determined as 0.037 µg/mL (≈ 0.045 µM).
As for `CC(c1ccc(C(F)(F)F)cc1)N1CC2(CCN(c3nc(=O)c4cc(C(F)(F)F)cc([N+](=O)[O-])c4s3)CC2)C1` (centres undefined), the figures for the Cmax in data set [2] and in [6] were 1240 ng/mL and 1390 ng/mL, respectively. The Tmax (commonly the time at which the peak concentration occurs) in [3] stood at 0.25 h. Besides, the half-life (commonly the time needed for the level to fall by half in the phase considered) in data set [4] was 6.69 h; in data set [11], 9.29 h. In addition, the bioavailability – broadly, dose-corrected exposure relative to a reference, in per cent – in data set [5] was determined as 41.5%. Further, the AUC(0-inf) (usually total exposure, with the tail of the curve extrapolated) in data set [7] worked out at 5500 ng·h/mL; in data set [8], 2650 ng·h/mL. The MIC in [1] was below 0.016 µg/mL. Further, the Activity in [9] is on record as above 5 log10CFU; in data set [12], “Non-Toxic”. Also, the cytotoxic concentration (CC50) (commonly the concentration that lowers cell viability or growth by half) in data set [10] was above 64 µg/mL.
Take `O=c1nc(N2CCC3(CC2)CN(Cc2ccc(Br)cc2)C3)sc2c([N+](=O)[O-])cc(C(F)(F)F)cc12`: the MIC in [1] is below 0.016 µg/mL.
The same measure, in the same setting: the same measure for `CC(c1ccc(F)cc1)N1CC2(CCN(c3nc(=O)c4cc(C(F)(F)F)cc([N+](=O)[O-])c4s3)CC2)C1` (centres undefined): below 0.016 µg/mL.
Same read-out and setting: under `CC(c1ccc(F)c(Cl)c1)N1CC2(CCN(c3nc(=O)c4cc(C(F)(F)F)cc([N+](=O)[O-])c4s3)CC2)C1` (centres undefined) stands below 0.016 µg/mL; under `CC(c1ccc(Br)cc1)N1CC2(CCN(c3nc(=O)c4cc(C(F)(F)F)cc([N+](=O)[O-])c4s3)CC2)C1` (centres undefined), below 0.016 µg/mL; under `CC(c1ccc(F)c(F)c1)N1CC2(CCN(c3nc(=O)c4cc(C(F)(F)F)cc([N+](=O)[O-])c4s3)CC2)C1` (centres undefined), below 0.016 µg/mL.
As for `NNC(=O)c1ccncc1` [ISONIAZID], in data set [1], the MIC was found to be 0.038 µg/mL (≈ 0.277 µM). Moreover, the Activity in [9] is above 5 log10CFU.
Turning to `O=c1nc(N2CCC3(CC2)CN(Cc2ccc(OC(F)(F)F)cc2)C3)sc2c([N+](=O)[O-])cc(C(F)(F)F)cc12`, the MIC in data set [1] is below 0.016 µg/mL.
`CC(c1cc(F)c(F)c(F)c1)N1CC2(CCN(c3nc(=O)c4cc(C(F)(F)F)cc([N+](=O)[O-])c4s3)CC2)C1` (centres undefined): the Cmax (as a rule, the maximum level reached in the sampled fluid or tissue) in data set [2] came to 240 ng/mL; in data set [6], 463 ng/mL. The Tmax in data set [3] came to 0.25 h. Moreover, the half-life in [4] was 2.08 h; in data set [11], 1.86 h. The compound also registered a bioavailability in data set [5] of 18.3%. The AUC(0-inf) in data set [7] turned out to be 455 ng·h/mL; in data set [8], 498 ng·h/mL. In addition, the MIC in [1] was below 0.016 µg/mL. Further, the Activity is on record as above 5 log10CFU in [9] and “Non-Toxic” in [12]. Moreover, the CC50 in data set [10] was above 64 µg/mL.
Consider `CC(c1ccc(OC(F)(F)F)cc1)N1CCC2(CC1)CN(c1nc(=O)c3cc(C(F)(F)F)cc([N+](=O)[O-])c3s1)C2` (centres undefined), for which, in [1], the MIC is below 0.016 µg/mL. Besides, the results for the Activity in data set [9] and in data set [12] were 4.05 log10CFU and “Non-Toxic”, respectively. The CC50 in [10] was above 64 µg/mL.
`CC(c1ccc(Cl)cc1)N1CC2(CCN(c3nc(=O)c4cc(C(F)(F)F)cc([N+](=O)[O-])c4s3)CC2)C1` (centres undefined): the MIC in data set [1] is below 0.016 µg/mL.
For the compound `CC(c1cc(F)cc(F)c1)N1CC2(CCN(c3nc(=O)c4cc(C(F)(F)F)cc([N+](=O)[O-])c4s3)CC2)C1` (centres undefined), the Cmax is 286 ng/mL in data set [2] and 723 ng/mL in data set [6]. Further, the time to peak (Tmax) in [3] stood at 0.25 h. For the same compound, the half-life is 3.02 h in data set [4] and 3.25 h in [11]. The same compound showed a bioavailability in [5] of 15%. Besides, the AUC(0-inf) amounted to 609 ng·h/mL in [7] and 812 ng·h/mL in data set [8]. Further, in data set [1], the MIC was below 0.016 µg/mL. Also, the Activity was above 5 log10CFU in data set [9] and “Non-Toxic” in data set [12]. In addition, the CC50 in [10] is above 64 µg/mL.
Take `O=c1nc(N2CCC3(CC2)CN(C(c2ccc(F)cc2)c2ccc(F)cc2)C3)sc2c([N+](=O)[O-])cc(C(F)(F)F)cc12`: in [1], the MIC was 0.037 µg/mL (≈ 0.0614 µM).
`CC(c1ccc(Cl)c(F)c1)N1CC2(CCN(c3nc(=O)c4cc(C(F)(F)F)cc([N+](=O)[O-])c4s3)CC2)C1` (centres undefined): the results for the Cmax in [2] and in [6] were 313 ng/mL and 709 ng/mL, respectively. For the same compound, in data set [3], the Tmax was found to be 0.5 h. Besides, the figures for the half-life in data set [4] and in data set [11] were 10.1 h and 7.5 h, respectively. In data set [5], the bioavailability amounted to 33%. Also, the AUC(0-inf) worked out at 1940 ng·h/mL in [7] and 1170 ng·h/mL in data set [8]. The MIC in [1] is below 0.016 µg/mL. Besides, the Activity in data set [9] was above 5 log10CFU; in data set [12], “Non-Toxic”. This compound registered a CC50 in data set [10] above 64 µg/mL.
Turning to `O=c1nc(N2CCN(CC3CCCCC3)CC2)sc2c([N+](=O)[O-])cc(C(F)(F)F)cc12` [MACOZINONE], the Cmax in data set [2] was 734 ng/mL; in [6], 1840 ng/mL. For the same compound, the Tmax in [3] was 0.25 h. Further, the half-life is 5.07 h in data set [4] and 5.14 h in [11]. The compound also gave a F in data set [5] (12.5 mg/kg, 24 h) of 11.8%. Besides, the AUC(0-inf) in data set [7] came out at 912 ng·h/mL; in data set [8], 1540 ng·h/mL. Besides, the MIC in [1] is below 0.016 µg/mL. Moreover, in [9], the Activity is listed as above 5 log10CFU. Besides, the CC50 in data set [10] was above 64 µg/mL.
Consider `O=c1nc(N2CCC3(CC2)CN(Cc2ccc(F)cc2)C3)sc2c([N+](=O)[O-])cc(C(F)(F)F)cc12`, for which, in [1], the MIC is below 0.016 µg/mL.
Regarding `CC(c1ccc(OC(F)(F)F)cc1)N1CC2(CCN(c3nc(=O)c4cc(C(F)(F)F)cc([N+](=O)[O-])c4s3)CC2)C1` (centres undefined), the Cmax in [2] turned out to be 915 ng/mL; in data set [6], 1640 ng/mL. In addition, the Tmax in data set [3] stood at 0.25 h. Further, the half-life in data set [4] is 6 h; in data set [11], 8.51 h. The bioavailability in data set [5] stood at 24.2%. The results for the AUC(0-inf) in [7] and in data set [8] were 3620 ng·h/mL and 2990 ng·h/mL, respectively. Besides, in data set [1], the MIC was below 0.016 µg/mL. Further, the results for the Activity in data set [9] and in data set [12] were above 5 log10CFU and “Non-Toxic”, respectively. This compound also showed a 50% cytotoxic concentration (CC50) in [10] above 64 µg/mL.
Regarding `O=c1nc(N2CCC3(CC2)CN(Cc2ccc(C(F)(F)F)cc2)C3)sc2c([N+](=O)[O-])cc(C(F)(F)F)cc12`, the MIC in data set [1] was below 0.016 µg/mL. For the same compound, the CC50 in [10] is above 64 µg/mL. The Activity result in [12] is “Toxic”.
`O=c1nc(N2CCC3(CC2)CN(Cc2cccc(F)c2)C3)sc2c([N+](=O)[O-])cc(C(F)(F)F)cc12`: in [1], the minimal inhibitory concentration (MIC) is below 0.016 µg/mL.
Consider `O=c1nc(N2CCC3(CC2)CN(Cc2cc(F)cc(F)c2)C3)sc2c([N+](=O)[O-])cc(C(F)(F)F)cc12`, for which the MIC in data set [1] was below 0.016 µg/mL.
On the same count and under the same terms, the same measure for `CC(c1cccc(F)c1)N1CC2(CCN(c3nc(=O)c4cc(C(F)(F)F)cc([N+](=O)[O-])c4s3)CC2)C1` (centres undefined): below 0.016 µg/mL; for `CC(c1ccc(F)cc1F)N1CC2(CCN(c3nc(=O)c4cc(C(F)(F)F)cc([N+](=O)[O-])c4s3)CC2)C1` (centres undefined): below 0.016 µg/mL.
